Experiment [1] concerns tomato late blight fungus (Phytophthora infestans). Format: in vivo. The following applies: 10 ppm; tomato plant, 1 week at 24° C.
Experiment [2] concerns grape downy mildew fungus (Plasmopara viticola). Put plainly: Test Example 2: grape downy mildew, spray then inoculation, infection rate. The following applies: 10 ppm; grape plant, 1 week at 24° C. In kind it is in vivo. From the text:
A grape plant (cultivar: Berry A) was planted in each pot and was sprayed with a sufficient volume of a dilution with a predetermined concentration of a wettable powder obtained according to Formulation Example 5, after the plant put out a fourth leaf.

Experiment [3] deals with tomato late blight fungus. Format: in vivo, Phytophthora infestans. The note with it: tomato seedling.
Experiment [4] concerns apple scab fungus. Put plainly: Test Example 8: apple scab, foliage application then inoculation. The following applies: apple seedling. Format: in vivo, Venturia inaequalis.
Experiment [5] deals with tomato late blight fungus. Format: in vivo, Phytophthora infestans. The note with it: tomato seedling. The source holds these as a separate data set.
Experiment [6] relates to apple scab fungus. Put plainly: Test Example 13: apple scab, foliage application then inoculation. The following applies: apple seedling. In kind it is in vivo, Venturia inaequalis.
Experiment [7] concerns grape powdery mildew fungus (Uncinula necator). Put plainly: Test Example 14: grape powdery mildew, spray then inoculation. In kind it is in vivo. The note with it: 1 ppm; grape plant, 3 weeks at 24° C.
Experiment [8] relates to tomato late blight fungus (Phytophthora infestans). Format: in vivo. The following applies: 10 ppm; tomato plant, 1 week at 24° C. The source holds these as a separate data set.
For experiment [9], the system named is grape powdery mildew fungus (Uncinula necator). In words: Test Example 16: grape powdery mildew, spray then inoculation. Format: in vivo. The following applies: 10 ppm; grape plant, 3 weeks at 24° C.
Experiment [10] relates to gray mold fungi sensitive to benzimidazole type fungicidal compounds. Put plainly: Test Example 12: cucumber gray mold, benzimidazole-sensitive fungus. The following applies: cucumber seedling.
Procedure: Each of plastic pots was filled with sandy loam and sown with cucumber (Sagamihanjiro), followed by growing in a greenhouse for 14 days. A wettable powder of test agents prepared according to Formulation Example 41 was diluted to a predetermined concentration with water, and foliage application of the dilution was carried out so as to adhere the dilution sufficiently to the surfaces of leaves of the grown cucumber young seedling. After air-drying, each of gray mold fungi sensitive and tolerant, respectively, to benzimidazole type fungicidal compounds was inoculated on the surfaces of leaves of the young seedling, and the young seedling was grown in the dark at 10° C. and a high humidity for 4 days, after which the infection rate (%) was investigated.
Experiment [11] shares this test system. Put plainly: Test Example 17: cucumber gray mold, benzimidazole-sensitive fungus. The note with it: cucumber seedling.
Procedure: (§1) Each of plastic pots was filled with sandy loam and sown with cucumber (Sagamihanjiro), followed by growing in a greenhouse for 14 days. A wettable powder of test agents prepared according to Formulation Example 59 was diluted to a predetermined concentration with water, and foliage application of the dilution was carried out so as to adhere the dilution sufficiently to the surfaces of leaves of the grown cucumber young seedling. After air-drying, each of gray mold fungi sensitive and tolerant, respectively, to benzimidazole type fungicidal compounds was inoculated on the surfaces of leaves of the young seedling, and the young seedling was grown in the dark at 10° C. and a high humidity for 4 days, after which the infection rate (%) was investigated.
Experiment [12] has as its system grape downy mildew fungus. Put plainly: Test Example 6: grape downy mildew, foliage application then inoculation. The note with it: grape seedling.
Procedure: (§2) Each of plastic pots was filled with sandy loam and sown with grape (Berry A), followed by growing in a greenhouse for 40 days. […] Then, the young seedling was inoculated with a suspension of zoosporangia of grape downy mildew fungus by spraying. After the inoculation, the young seedling was allowed to stand overnight at 23° C. and a high humidity and then grown in a greenhouse for 7 days, after which the infection rate (%) was investigated.
The test system of experiment [13] is grape downy mildew fungus. In words: Test Example 7: grape downy mildew, foliage application then inoculation. The following applies: grape seedling.
Procedure: as §2
For experiment [14], the system named is grape downy mildew fungus. Put plainly: Test Example 9: grape downy mildew, foliage application then inoculation. The note with it: grape seedling.
Procedure: as §2
The subject of experiment [15] is gray mold fungus. In words: Test Example 4: cucumber gray mold, foliage application after inoculation. The following applies: cucumber seedling, applied after inoculation.
Procedure: Each of plastic pots was filled with sandy loam and sown with cucumber (Sagamihanjiro), followed by growing in a greenhouse for 14 days. Gray mold fungus was inoculated on the surfaces of leaves of the grown cucumber young seedling, and the young seedling was grown in the dark at 10° C. and a high humidity for 2 days and then at a temperature of 23° C. for 3 days. A wettable powder of test agents prepared according to Formulation Example 11 was diluted to a predetermined concentration with water, and foliage application of the dilution was carried out so as to adhere the dilution sufficiently to the surfaces of leaves of the cucumber young seedling. After the spraying, the young seedling was grown in the dark at 10° C. and a high humidity for 3 days, and then the infection rate (%) was investigated.
For experiment [16], the system named is gray mold fungus. Put plainly: Test Example 3: cucumber gray mold, foliage application before inoculation. The note with it: cucumber seedling, applied before inoculation, 4 days.
Procedure: Each of plastic pots was filled with sandy loam and sown with cucumber (Sagamihanjiro), followed by growing in a greenhouse for 14 days. A wettable powder of test agents prepared according to Formulation Example 11 was diluted to a predetermined concentration with water, and foliage application of the dilution was carried out so as to adhere the dilution sufficiently to the surfaces of leaves of the grown cucumber young seedling. After air-drying, gray mold fungus was inoculated on the surfaces of leaves of the young seedling, and the young seedling was grown in the dark at 10° C. and a high humidity for 4 days, after which the infection rate (%) was investigated.
Experiment [17] has as its system gray mold fungus. In words: Test Example 11: cucumber gray mold, foliage application before inoculation. The following applies: cucumber seedling.
Procedure: Each of plastic pots was filled with sandy loam and sown with cucumber (Sagamihanjiro), followed by growing in a greenhouse for 14 days. A wettable powder of test agents prepared according to Formulation Example 35 was diluted to a predetermined concentration with water, and foliage application of the dilution was carried out so as to adhere the dilution sufficiently to the surfaces of leaves of the grown cucumber young seedling. After air-drying, gray mold fungus was inoculated on the surfaces of leaves of the young seedling, and the young seedling was grown in the dark at 10° C. and a high humidity for 4 days, after which the infection rate (%) was investigated.
Experiment [18] relates to gray mold fungi tolerant to benzimidazole type fungicidal compounds. In words: Test Example 12: cucumber gray mold, benzimidazole-tolerant (resistant) fungus. The following applies: cucumber seedling.
Procedure: Each of plastic pots was filled with sandy loam and sown with cucumber (Sagamihanjiro), followed by growing in a greenhouse for 14 days. […] After air-drying, each of gray mold fungi sensitive and tolerant, respectively, to benzimidazole type fungicidal compounds was inoculated on the surfaces of leaves of the young seedling, and the young seedling was grown in the dark at 10° C. and a high humidity for 4 days, after which the infection rate (%) was investigated.
The test system is the same in experiment [19]. Put plainly: Test Example 17: cucumber gray mold, benzimidazole-tolerant (resistant) fungus. The note with it: cucumber seedling.
Procedure: as §1

The structures appear in SMILES notation. Like-named read-outs stand apart in the source and are kept apart here.

As for `CNC(=O)C(=NOC)c1ccccc1COc1cccc(Cl)c1` [Compound (Ic), N-methyl-α-methoxyimino-2-[(3-chlorophenoxy)methyl]phenylacetamide], the “Infection rate (%)” value in [1] was determined as 25%; in [2], 25%; in [3] (40 ppm), 20%; in the experiment with apple scab fungus [4] (5 ppm) it was 25%; in [5] (40 ppm), 20%; in the experiment with apple scab fungus [6] (1 ppm), 30%. The “Infection rate (%)” value came to 20% in experiment [7]; 25% in experiment [8]; 25% in experiment [9]; 25% in experiment [12] (5 ppm); 25% in experiment [13] (10 ppm); 20% in experiment [14] (100 ppm). Further, the “Infection rate (%)” value in the experiment on gray mold fungus [15] (200 ppm), with gray mold fungus [16] (200 ppm) and in the experiment on gray mold fungus [17] (200 ppm) was 20% each time. In addition, the “Infection rate (%) Sensitive fungus” value in experiment [10] (200 ppm) and in experiment [11] (200 ppm) was 20% each time. Besides, the “Infection rate (%) Resistant fungus” value in experiment [18] (200 ppm) and in experiment [19] (200 ppm) was 20% each time.
On to `CNC(=O)C(=NOC)c1ccccc1COc1cc(C)ccc1C` [Compound (Ie), N-methyl-α-methoxyimino-2-[(2,5-dimethylphenoxy)methyl]phenylacetamide], for which the “Infection rate (%)” value in experiment [1] is recorded as 25%; in [2], 25%; in experiment [3] (10 ppm) it was 20%; in the experiment with apple scab fungus [4] (0.5 ppm) it was 20%; in [5] (5 ppm), 25%; with apple scab fungus [6] (0.5 ppm), 20%. For the same molecule, the “Infection rate (%)” value in experiment [7] stood at 25%; in experiment [8] it was 25%; in experiment [9] it was 25%; in [12] (1 ppm), 25%; in experiment [13] (2 ppm) it was 20%; in [14] (10 ppm), 25%. The “Infection rate (%)” value in the experiment with gray mold fungus [15] (20 ppm), in the experiment on gray mold fungus [16] (20 ppm) and in the experiment on gray mold fungus [17] (20 ppm) was 25% each time. Moreover, the “Infection rate (%) Sensitive fungus” value in experiment [10] (20 ppm) and in experiment [11] (20 ppm) was 25% in each case. Moreover, the “Infection rate (%) Resistant fungus” value in [18] (20 ppm) and in experiment [19] (20 ppm) was 25% throughout.
